The text below walks through data of ChEMBL document CHEMBL5244247, “Natural and synthetic coumarins as antileishmanial agents: A review” (Eur J Med Chem, 2020).

≈ marks a conversion by molar mass, not a printed value. Where “and” joins values, the source holds several entries; their conditions need not be identical. Equal values may be shown once.

The subject of data set [1] is Leishmania major. In words: Antileishmanial activity against promastigote form of Leishmania major assessed as inhibition incubated for 48 hrs by MTT assay. Format: functional, organism-based.
Data set [2] has as its system Leishmania panamensis. Kind of data set: Antileishmanial activity against intracellular Leishmania panamensis amastigotes infected in human U-937 cells assessed as inhibition at 20 ug/mL incubated for 72 hrs by flow cytometry relative to control. Format: functional. A general note: A flow cytometer gives signals particle by particle.
Data set [3] deals with Leishmania panamensis. In words: Antileishmanial activity against intracellular Leishmania panamensis amastigotes infected in human U-937 cells assessed as inhibition incubated for 72 hrs by flow cytometry. It counts as functional, organism-based. Particulars: U-937, 72 h.
The test system of data set [4] is Leishmania amazonensis. In words: Antileishmanial activity against intracellular Leishmania amazonensis MHOM/BR/75/Josefa amastigotes infected in BALB/c mouse peritoneal macrophages assessed as parasite growth inhibition incubated for 24 hrs by regression analysis. Format: functional, organism-based. The settings on record: Peritoneal macrophage.
Data set [5] deals with Leishmania braziliensis. Kind of data set: Antileishmanial activity against amastigote form of Leishmania braziliensis. It counts as functional.
The test system of data set [6] is Leishmania braziliensis. Kind of data set: Antileishmanial activity against promastigote form of Leishmania braziliensis. Format: functional, organism-based.
Data set [7] in a line: Selectivity index, ratio of CC50 for cytotoxicity against mouse J774G8 cells to IC50 for antileishmanial activity against intracellular Leishmania amazonensis MHOM/BR/75/Josefa amastigotes infected in BALB/c mouse peritoneal macrophages. Format: toxicity, cell-based. The settings on record: read-out: Ratio CC50/IC50.
The subject of data set [8] is Leishmania amazonensis. In words: Antileishmanial activity against amastigote form of Leishmania amazonensis assessed as parasite growth inhibition incubated for 72 hrs by regression analysis. It counts as functional, organism-based.
The subject of data set [9] is Leishmania amazonensis. In words: Antileishmanial activity against promastigote form of Leishmania amazonensis assessed as parasite growth inhibition incubated for 72 hrs by regression analysis. Format: functional, organism-based.

Consider `O=c1oc2ccc(/N=C/c3ccco3)cc2cc1-c1ccc2c(c1)OCO2`, for which the IC50 – broadly, the midpoint of a concentration-inhibition curve – in [1] worked out at 223 µM.

`Cc1cc(=O)oc2cc(OCCCCOc3cc(Cl)ccc3Oc3ccc(Cl)cc3Cl)ccc12`: the inhibition (usually the percentage by which the read-out fell short of the control) at 20 µg/mL in data set [2] came out at 57.1%. Moreover, in data set [3], the half-maximal inhibitory concentration (IC50) stood at 53.1 µM.

Regarding `CCC(C)C(=O)c1c(O)c(CC=C(C)C)c(O)c2c(-c3ccccc3)cc(=O)oc12` (stereo not given), the IC50 in data set [4] was 14.3 µM; in [8] it was 0.88 µg/mL (≈ 2.16 µM); in data set [9], 3 µg/mL and 7.4 µM. Besides, the LD50 in [5] is 22 µg/mL; in data set [6], 23.2 µg/mL and 60 µg/mL. For the same compound, in [5] (Leishmania braziliensis, read-out: LD50 (the source's name)), the LC50 worked out at 29 µg/mL (≈ 71.3 µM). For the same compound, the selectivity ratio in [7] is 4.4.
